Results as given in the NIST ThermoML archive (doi:10.1016/j.jct.2005.02.004).
Numbers after ± are expanded uncertainties.

Assay: mn = molality of the nth substance listed, in mol/kg
Conditions: Liquid, Vibrating tube method

Compound `[Br-].[Br-].[Zn+2]` [zinc bromide] + CO has a mass density (298.27 K, 175 kPa, m1 = 0.7158) of 902.32 ± 0.43 kg/m3, a mass density (298.27 K, 206 kPa, m1 = 0.3785) of 853.39 ± 0.44 kg/m3 and a mass density (298.27 K, 206 kPa, m1 = 1.951) of 1072.66 ± 0.44 kg/m3. For the same compound, the mass density (298.27 K, 4983 kPa, m1 = 1.951) was 1077.46 ± 0.44 kg/m3, the mass density (298.27 K, 4990 kPa, m1 = 0.3785) was 858.17 ± 0.45 kg/m3 and the mass density (298.27 K, 4998 kPa, m1 = 0.7158) was 907.05 ± 0.44 kg/m3. It also gave a mass density (298.27 K, 9995 kPa, m1 = 1.951) of 1082.31 ± 0.44 kg/m3, a mass density (298.27 K, 10009 kPa, m1 = 0.7158) of 911.75 ± 0.44 kg/m3 and a mass density (298.27 K, 10013 kPa, m1 = 0.3785) of 862.94 ± 0.45 kg/m3. For the same compound, the mass density (298.27 K, 14985 kPa, m1 = 0.7158) was 916.21 ± 0.44 kg/m3, the mass density (298.27 K, 14995 kPa, m1 = 0.3785) was 867.44 ± 0.46 kg/m3 and the mass density (298.27 K, 15001 kPa, m1 = 1.951) was 1087.02 ± 0.45 kg/m3. For the same compound, the mass density (298.27 K, 19983 kPa, m1 = 1.951) was 1091.45 ± 0.45 kg/m3, the mass density (298.27 K, 19984 kPa, m1 = 0.3785) was 871.75 ± 0.47 kg/m3 and the mass density (298.27 K, 19989 kPa, m1 = 0.7158) was 920.51 ± 0.44 kg/m3. The mass density (298.27 K, 24990 kPa, m1 = 1.951) was 1095.81 ± 0.46 kg/m3, the mass density (298.27 K, 25018 kPa, m1 = 0.3785) was 875.78 ± 0.47 kg/m3 and the mass density (298.27 K, 25019 kPa, m1 = 0.7158) was 924.66 ± 0.45 kg/m3. For the same compound, the mass density (298.27 K, 29988 kPa, m1 = 0.3785) was 879.71 ± 0.48 kg/m3, the mass density (298.27 K, 29996 kPa, m1 = 1.951) was 1100.02 ± 0.46 kg/m3 and the mass density (298.27 K, 34982 kPa, m1 = 0.3785) was 883.51 ± 0.49 kg/m3. It also gave a mass density (298.27 K, 34985 kPa, m1 = 0.7158) of 932.44 ± 0.45 kg/m3, a mass density (298.27 K, 34998 kPa, m1 = 1.951) of 1104.11 ± 0.47 kg/m3 and a mass density (298.27 K, 35000 kPa, m1 = 0.7158) of 932.43 ± 0.45 kg/m3. It also gave a mass density (298.27 K, 39992 kPa, m1 = 0.7158) of 936.16 ± 0.45 kg/m3, a mass density (298.27 K, 40008 kPa, m1 = 0.3785) of 887.18 ± 0.49 kg/m3 and a mass density (298.27 K, 40010 kPa, m1 = 1.951) of 1108.09 ± 0.48 kg/m3. The mass density (298.28 K, 200 kPa, m1 = 0.05772) was 797.74 ± 0.45 kg/m3, the mass density (298.28 K, 4999 kPa, m1 = 0.05772) was 802.42 ± 0.46 kg/m3 and the mass density (298.28 K, 9984 kPa, m1 = 0.05772) was 807.04 ± 0.47 kg/m3. The mass density (298.28 K, 14988 kPa, m1 = 0.05772) was 811.39 ± 0.48 kg/m3, the mass density (298.28 K, 19994 kPa, m1 = 0.05772) was 815.58 ± 0.5 kg/m3 and the mass density (298.28 K, 24988 kPa, m1 = 0.05772) was 819.58 ± 0.51 kg/m3. It also gave a mass density (298.28 K, 29998 kPa, m1 = 0.05772) of 823.42 ± 0.52 kg/m3, a mass density (298.28 K, 34981 kPa, m1 = 0.05772) of 827.09 ± 0.54 kg/m3 and a mass density (298.28 K, 40008 kPa, m1 = 0.05772) of 830.66 ± 0.55 kg/m3. For the same compound, the mass density (323.22 K, 212 kPa, m1 = 0.7158) was 876.52 ± 0.44 kg/m3, the mass density (323.22 K, 228 kPa, m1 = 0.3785) was 828.32 ± 0.45 kg/m3 and the mass density (323.22 K, 230 kPa, m1 = 0.05772) was 773.97 ± 0.45 kg/m3. It also gave a mass density (323.22 K, 245 kPa, m1 = 1.951) of 1042.34 ± 0.43 kg/m3, a mass density (323.22 K, 4983 kPa, m1 = 0.3785) of 833.75 ± 0.45 kg/m3 and a mass density (323.22 K, 4994 kPa, m1 = 0.05772) of 779.33 ± 0.46 kg/m3. The mass density (323.22 K, 5004 kPa, m1 = 1.951) was 1047.72 ± 0.43 kg/m3, the mass density (323.22 K, 5010 kPa, m1 = 0.7158) was 881.93 ± 0.44 kg/m3 and the mass density (323.22 K, 9982 kPa, m1 = 1.951) was 1053.09 ± 0.44 kg/m3. It also gave a mass density (323.22 K, 9993 kPa, m1 = 0.3785) of 839.12 ± 0.46 kg/m3, a mass density (323.22 K, 9999 kPa, m1 = 0.7158) of 887.26 ± 0.44 kg/m3 and a mass density (323.22 K, 10015 kPa, m1 = 0.05772) of 784.65 ± 0.48 kg/m3. The mass density (323.22 K, 14987 kPa, m1 = 1.951) was 1058.26 ± 0.44 kg/m3, the mass density (323.22 K, 14997 kPa, m1 = 0.05772) was 789.6 ± 0.49 kg/m3 and the mass density (323.22 K, 14997 kPa, m1 = 0.3785) was 844.21 ± 0.47 kg/m3. The mass density (323.22 K, 15018 kPa, m1 = 0.7158) was 892.34 ± 0.45 kg/m3, the mass density (323.22 K, 19990 kPa, m1 = 0.3785) was 849.04 ± 0.47 kg/m3 and the mass density (323.22 K, 19994 kPa, m1 = 0.7158) was 897.14 ± 0.45 kg/m3. The mass density (323.22 K, 20007 kPa, m1 = 0.05772) was 794.31 ± 0.5 kg/m3, the mass density (323.22 K, 20009 kPa, m1 = 1.951) was 1063.24 ± 0.44 kg/m3 and the mass density (323.22 K, 24981 kPa, m1 = 0.7158) was 901.73 ± 0.45 kg/m3. The mass density (323.22 K, 24985 kPa, m1 = 0.05772) was 798.77 ± 0.52 kg/m3, the mass density (323.22 K, 24994 kPa, m1 = 0.3785) was 853.6 ± 0.48 kg/m3 and the mass density (323.22 K, 24998 kPa, m1 = 1.951) was 1068 ± 0.45 kg/m3. For the same compound, the mass density (323.22 K, 29987 kPa, m1 = 0.7158) was 906.15 ± 0.46 kg/m3, the mass density (323.22 K, 29997 kPa, m1 = 1.951) was 1072.61 ± 0.45 kg/m3 and the mass density (323.22 K, 30012 kPa, m1 = 0.05772) was 803.09 ± 0.54 kg/m3. The mass density (323.22 K, 30016 kPa, m1 = 0.3785) was 857.92 ± 0.49 kg/m3, the mass density (323.22 K, 34994 kPa, m1 = 0.7158) was 910.38 ± 0.46 kg/m3 and the mass density (323.22 K, 34996 kPa, m1 = 0.05772) was 807.14 ± 0.55 kg/m3. It also gave a mass density (323.22 K, 34997 kPa, m1 = 0.3785) of 862.1 ± 0.5 kg/m3, a mass density (323.22 K, 35003 kPa, m1 = 1.951) of 1077.08 ± 0.46 kg/m3 and a mass density (323.22 K, 39988 kPa, m1 = 0.3785) of 866.11 ± 0.51 kg/m3. For the same compound, the mass density (323.22 K, 39997 kPa, m1 = 0.7158) was 914.47 ± 0.46 kg/m3, the mass density (323.22 K, 39998 kPa, m1 = 0.05772) was 811.05 ± 0.57 kg/m3 and the mass density (323.22 K, 40001 kPa, m1 = 1.951) was 1081.4 ± 0.46 kg/m3. It also gave a mass density (348.23 K, 311 kPa, m1 = 0.3785) of 802.57 ± 0.45 kg/m3, a mass density (348.23 K, 316 kPa, m1 = 0.7158) of 850.07 ± 0.44 kg/m3 and a mass density (348.23 K, 4989 kPa, m1 = 0.7158) of 856.15 ± 0.44 kg/m3. The mass density (348.23 K, 5006 kPa, m1 = 0.3785) was 808.74 ± 0.45 kg/m3, the mass density (348.23 K, 9999 kPa, m1 = 0.3785) was 814.86 ± 0.46 kg/m3 and the mass density (348.23 K, 10009 kPa, m1 = 0.7158) was 862.27 ± 0.45 kg/m3. For the same compound, the mass density (348.23 K, 14998 kPa, m1 = 0.7158) was 868 ± 0.45 kg/m3, the mass density (348.23 K, 15007 kPa, m1 = 0.3785) was 820.6 ± 0.47 kg/m3 and the mass density (348.23 K, 19987 kPa, m1 = 0.3785) was 825.97 ± 0.48 kg/m3. For the same compound, the mass density (348.23 K, 19998 kPa, m1 = 0.7158) was 873.4 ± 0.46 kg/m3, the mass density (348.23 K, 24998 kPa, m1 = 0.3785) was 831.08 ± 0.49 kg/m3 and the mass density (348.23 K, 25006 kPa, m1 = 0.7158) was 878.54 ± 0.46 kg/m3. It also gave a mass density (348.23 K, 29987 kPa, m1 = 0.7158) of 883.42 ± 0.47 kg/m3, a mass density (348.23 K, 29988 kPa, m1 = 0.3785) of 835.92 ± 0.51 kg/m3 and a mass density (348.23 K, 34986 kPa, m1 = 0.7158) of 888.06 ± 0.47 kg/m3. For the same compound, the mass density (348.23 K, 35004 kPa, m1 = 0.3785) was 840.55 ± 0.52 kg/m3, the mass density (348.23 K, 40002 kPa, m1 = 0.7158) was 892.55 ± 0.48 kg/m3 and the mass density (348.23 K, 40007 kPa, m1 = 0.3785) was 844.98 ± 0.53 kg/m3.
